From patent US12226520B2, “Self-fueled particles for propulsion through flowing aqueous fluids” (The University of British Columbia, priority 2013, dated 2025) come the findings set out here.

One assay relates to flowing plasma. Put plainly: Clotting and occlusion of plasma flowing through a glass capillary tube. The format is biochemical. The procedure: To show propelling thrombin particles clotting flowing plasma, particles were applied to the bottom of plasma flowing through a glass capillary tube (FIG. 3D,E). A microfluidic system was used to control the flow of plasma, and monitor the flow to determine when clotting occluded flow in the capillary tube. At flow velocities between 0.006 and 3.4 mm/s, the background occlusion times in the system were approximately 30 min. […] At high flows, the clot was easily pushed out and the flow of plasma resumed. […] The particles propelled upwards, against flow, and accumulated high within the tubing. Clotting was seen to initiate at regions with the highest concentration of particles.

The test system of assay [1] is platelet-poor blood plasma. Put plainly: Clot initiation in a 25 mm column of non-flowing platelet-poor blood plasma. In kind it is biochemical. The procedure:
Thr-CaCO3 was mixed at a 1:1 mass ratio with TXA-NH3^+ to yield a propelling particle mixture. A non-propelling mixture consisted of a 1:1 ratio of Thr-CaCO3 with lyophilized TXA-NH2. The ability of the two mixtures to initiate clotting in platelet-poor blood plasma was measured and compared against addition of a similar amount of thrombin (approximately 1 pmol) in HEPES buffer and a control receiving no treatment.
The ability of particles to clot both at the site of application and below the site was assessed by injecting particles near the top of a column of plasma that was 25 mm tall. Initiation of clotting was measured both at the top and the bottom of the column by monitoring the formation of fibrin. The blood plasma was laced with green-fluorescent beads in order to monitor movement and formation of solid fibrin mesh and clot initiation. Clotting at the top was measured visually, and when the plasma became opaque or appeared gelled, clotting was confirmed by gentle manipulation with a micropipette.
Both propelling and non-propelling particles immediately clotted plasma at the top of the column, which was detected within 2 min. The same response occurred when a solution containing an equivalent amount of dissolved thrombin was added. However, there were much larger differences in the clot times at the bottom of the columns of plasma between these samples.
Clotting took about 30 min, as the clot needed to propagate down through the column by diffusion. Clotting at the bottom was faster using non-propelled particles, occurring in 3.7 min as compared to 10 min for the propelled particles. […] Most propelled particles reacted and produced gas at the top so only a fraction of the particles sank to the bottom yielding a slightly slower clot time compared to non-propelling particles. Although the propelled particles out-performed the thrombin solution in this assay, a particular advantage for the propelling particles would come from an ability to propel though flowing solutions.

thrombin [thrombin solution]: the “flow velocity up to which occlusion occurred” value in the assay with flowing plasma is “up to 0.06 mm/s”. Also, the “occlusion versus controls at 0.6 mm/s” value with flowing plasma (flow velocity 0.6 mm/s) was “no difference from controls”. The “acceleration of clot initiation at the bottom compared to the control” value in assay [1] (bottom of 25 mm column) was “no acceleration of clot initiation”. Further, the “clot time at the bottom of the column” value in assay [1] (bottom of 25 mm column, non-flowing plasma) was “about 30 min”. For the same substance, in assay [1] (site of application, non-flowing plasma), the “clot time at the top of the column” value is “same response”.
